“Also recorded” adds a separate entry of the source.
test system: bacteria; test: Binding of targeting peptides to microorganisms (Table 3); settings: microorganism bound by the targeting peptide; binding in aqueous buffers chosen by peptide solubility, preferably 1x PBS

| Substance | Target(s) |
| --- | --- |
| PF-326 (VIVGNLGAQKEKRNDTPISAKKDIMGDKTVRVRADLHH; Peptide with targeting and/or antimicrobial activity) | S. mutans; also recorded: E. coli |
| PF-328 (NGNEKAFSEVENLVK; Peptide with targeting and/or antimicrobial activity) | S. mutans |
| PF-329 (IGILFDKSVRKY; Peptide with targeting and/or antimicrobial activity) | S. epidermidis |
| PF-333 (YMTKKLVEMAEQQMAGKSNR; Peptide with targeting and/or antimicrobial activity) | S. mutans |
| PF-334 (QQYLILDRM; Peptide with targeting and/or antimicrobial activity) | S. epidermidis; also recorded: C. difficile |
| PF-337 (YMTKKLVEMAERQMAGK; Peptide with targeting and/or antimicrobial activity) | S. epidermidis |
| PF-338 (KGTSCPDQLSKAIRQSI; Peptide with targeting and/or antimicrobial activity) | S. mutans |
| PF-340 (VKDVLLELFNKIIGA; Peptide with targeting and/or antimicrobial activity) | S. mutans; also recorded: E. coli |
| PF-348 (ESASAAEWYNPNMNVKKAICMG; Peptide with targeting and/or antimicrobial activity) | B. subtilis; also recorded: E. coli; also recorded: P. aeruginosa; also recorded: C. albicans; also recorded: E. faecalis; also recorded: C. jejuni |
| PF-351 (YLFFKGKKVAEEEATKDEVKR; Peptide with targeting and/or antimicrobial activity) | S. mutans |
| PF-352 (RVKKIG; Peptide with targeting and/or antimicrobial activity) | C. jeikeium |
| PF-359 (MTVMEDPGSEQRNKIQSPMKGEDFSALFGR; Peptide with targeting and/or antimicrobial activity) | S. epidermidis and B. fragilis and P. aeruginosa and C. albicans and MRSA and E. faecalis and C. jeikeium |
| PF-361 (NQVTEGIRLLVE; Peptide with targeting and/or antimicrobial activity) | S. epidermidis; also recorded: E. coli; also recorded: E. faecalis; also recorded: C. jejuni |
| PF-364 (LVNGIKI; Peptide with targeting and/or antimicrobial activity) | S. epidermidis; also recorded: B. fragilis; also recorded: P. aeruginosa; also recorded: C. jeikeium; also recorded: C. jejuni |
| PF-365 (LYKQKIQLEEELEKLKDDRQ; Peptide with targeting and/or antimicrobial activity) | S. epidermidis; also recorded: B. subtilis; also recorded: B. fragilis; also recorded: P. aeruginosa; also recorded: C. albicans |
| PF-367 (TKTPGTFTPGTGIQKTAVPL; Peptide with targeting and/or antimicrobial activity) | B. subtilis |
| PF-368 (MLKQTA; Peptide with targeting and/or antimicrobial activity) | C. jeikeium; also recorded: C. jejuni |
| PF-371 (TFIYNEF; Peptide with targeting and/or antimicrobial activity) | S. epidermidis; also recorded: B. fragilis; also recorded: C. jejuni |
| PF-372 (KKQDKRIEDKYKRMKKGD; Peptide with targeting and/or antimicrobial activity) | C. jeikeium; also recorded: C. jejuni |
| PF-384 (HISKERFEAY; Peptide with targeting and/or antimicrobial activity) | E. faecalis; also recorded: C. jeikeium; also recorded: C. jejuni |

same assay, conditions: peptide binding in aqueous buffers that varied depending on peptide solubility; preferably 1x PBS

| Substance | Target(s) (microorganisms bound by the targeting peptide) |
| --- | --- |
| PF-388 (ITPLLDEIGKVCIDKISK; Peptide with targeting and/or antimicrobial activity) | E. faecalis; also recorded: C. jeikeium; also recorded: C. jejuni |
| PF-400 (VIAWKFRNKFENSGV; Peptide with targeting and/or antimicrobial activity) | S. epidermidis; also recorded: E. coli; also recorded: S. pneumoniae; also recorded: E. faecalis; also recorded: C. jeikeium |
| PF-402 (FIDVLKSKINEFLN; Peptide with targeting and/or antimicrobial activity) | S. epidermidis; also recorded: P. aeruginosa; also recorded: E. faecalis; also recorded: C. jejuni |
| PF-409 (DLVQSILSEFKKSG; Peptide with targeting and/or antimicrobial activity) | S. epidermidis and MRSA and C. jeikeium and C. jejuni |
| PF-412 (TSGWLGQLEQ; Peptide with targeting and/or antimicrobial activity) | M. luteus; also recorded: E. coli; also recorded: C. albicans; also recorded: C. jeikeium; also recorded: C. jejuni |
| PF-435 (MSRWDGHSDKGEAPAGKPPMHGFGLNGENK; Peptide with targeting and/or antimicrobial activity) | C. jeikeium |
| PF-436 (KKHVLVGKQEKNG; Peptide with targeting and/or antimicrobial activity) | C. jeikeium |
| PF-438 (QPYFQNQFKKITGYTPLQYRKEKR; Peptide with targeting and/or antimicrobial activity) | S. epidermidis; also recorded: E. coli; also recorded: S. pneumoniae; also recorded: C. jeikeium; also recorded: C. jejuni |
| PF-441 (TQVHKMARGIDPGPANGIYR; Peptide with targeting and/or antimicrobial activity) | C. jeikeium |
| PF-463 (MVILVFSLIFIFTDNYLVYQSKSIKEDVMI; Peptide with targeting and/or antimicrobial activity) | S. epidermidis; also recorded: E. coli; also recorded: P. aeruginosa; also recorded: C. albicans; also recorded: S. pneumoniae; also recorded: E. faecalis; also recorded: M. smegmatis |
| PF-481 (DELYEIMDKVIEEFNKDIEQNNNNGNNEDLTENKIN; Peptide with targeting and/or antimicrobial activity) | C. jeikeium |
| PF-483 (EDNKDKKDKKDK; Peptide with targeting and/or antimicrobial activity) | P. mirabilis; also recorded: C. jeikeium; also recorded: C. jejuni |
| PF-486 (MQKEGEEDY; Peptide with targeting and/or antimicrobial activity) | S. mutans |
| PF-487 (MYKAIAVLAMTIMAFFIFVYPFFIVGLILG; Peptide with targeting and/or antimicrobial activity) | S. mutans; also recorded: E. coli |
| PF-488 (YPNEQGHHKNNLKNIIIE; Peptide with targeting and/or antimicrobial activity) | S. mutans; also recorded: E. coli |
| PF-489 (KVDRVSTTITEKIK; Peptide with targeting and/or antimicrobial activity) | S. mutans |
| PF-490 (RLILVSGNATVQK; Peptide with targeting and/or antimicrobial activity) | S. mutans; also recorded: E. coli |
| PF-491 (IHQYSSKPDIVGQEAKTVQQINS; Peptide with targeting and/or antimicrobial activity) | S. mutans; also recorded: E. coli |
| PF-492 (IQIDAASFYSISKSTIK; Peptide with targeting and/or antimicrobial activity) | S. mutans; also recorded: B. subtilis; also recorded: E. coli |
| PF-493 (PGAFFFCRGRGCWCGIGW; Peptide with targeting and/or antimicrobial activity) | S. mutans; also recorded: B. subtilis; also recorded: E. coli |
| PF-494 (FTEPLRPLQAKGQIISIKPSTSSS; Peptide with targeting and/or antimicrobial activity) | S. mutans |
| PF-495 (KGIYKKRTY; Peptide with targeting and/or antimicrobial activity) | S. mutans; also recorded: E. coli |
| PF-496 (EVTKRLVALAQQQLRG; Peptide with targeting and/or antimicrobial activity) | S. mutans; also recorded: E. coli |
| PF-498 (MSEEEEVSEKVYNYLRRNEFFEVRKEEFSA; Peptide with targeting and/or antimicrobial activity) | S. mutans; also recorded: E. coli |
| PF-500 (MGIFKEEKIKFIDCKGEEVILKIKIKDIKK; Peptide with targeting and/or antimicrobial activity) | S. mutans; also recorded: E. coli |
| PF-501 (GSTAHKSPIGSTNNQWGMKKTPTD; Peptide with targeting and/or antimicrobial activity) | S. mutans |
| PF-502 (NKGKQMQDQTGKQPIVDNG; Peptide with targeting and/or antimicrobial activity) | S. mutans |
| PF-503 (VVTLKDIVAVIEDQGYDVQ; Peptide with targeting and/or antimicrobial activity) | S. mutans |

Source: patent US9597407B2, “Targeted antimicrobial moieties” (C3 Jian, Inc., priority 2009, dated 2017)
